Measured values published in patent US10100284B2, “Method for inducing differentiation of pluripotent stem cells into endodermal cells” (TOAGOSEI CO., LTD., priority 2013, dated 2018).
Where no end group is shown, it is not given here.

Columns and labels:
[1] = test system: human-derived iPS cells (clone name: 201B2 or 201B7); assay: Stem cell differentiation-inducing activity based on iPS cell transformation (optical microscope morphology); conditions: peptide concentration 4.0 μM; eight days after the beginning of culture; FIG. 1; peptide-free group 80% or more black (undifferentiated)
Protocol: The differentiation-inducing activity of a differentiation-inducing synthetic peptide (Sample 1) obtained in Example 1 above was evaluated based on the transformation of iPS cells cultured and passaged in vitro. A peptide-free group was also provided as a comparative example. The details of the evaluation test were as follows.
Cells supplied by the Kyoto University Center for iPS cell Research and Application were used as the human-derived iPS cells in this example (clone name: 201B2 or 201B7, reference source: Takahashi K et al., Cell, 131, 861-872 (2007)). For the feeder cells used in culturing these iPS cells, mouse embryonic fibroblasts (MEF cells) were used to passage (maintain) the iPS cells, while mouse embryonic fibroblasts (cell strain SNL 76/7) supplied under license by the Baylor College of Medicine were used in testing to evaluate the stem cell differentiation-inducing activity of the differentiation-inducing synthetic peptide (Sample 1).
Feeder cells that had been inactivated by mitomycin C treatment were seeded ahead of time on a gelatin-coated 24-well plate 1 to 4 days before seeding of the iPS cells. […]

[2] = test system: iPS cells (clone name: 201B2 or 201B7); assay: Quantitative RT-PCR of stem cell marker gene and germ layer differentiation marker genes in iPS cells; format: cell-based, human; conditions: peptide concentration 6.0 μM, FIG. 3
Protocol: The stem cell differentiation-inducing activity of a differentiation-inducing synthetic peptide (Sample 1) obtained in Example 1 above was evaluated by measuring changes over time in the expressed amounts of a stem cell differentiation marker gene (that is, a stem cell marker gene) and differentiation marker genes for the three kinds of germ layer cells. iPS cells that had been cultured and passaged in vitro were used as the test cells. The specifics of the evaluation test were as follows.
iPS cells (clone name: 201B2 or 201B7) were cultured as in Example 2 except that Sample 1 that had been prepared with DMSO/EtOH=1/1 to a peptide concentration of 4 mM was added 1.5 μL/well (that is to a peptide concentration of 6.0 μM in the well). A peptide-free group was also established as a comparative example. The medium was replaced and peptide was added two days, four days and six days after initiation of iPS cell culture. […]
25 to […] of purified RNA was supplied to quantitative RT-PCR, and the expressed amounts of a stem cell marker gene and differentiation marker genes for the three kinds of germ layer cells were quantified. […] A One Step SYBR® PrimeScript® PLUS RT-PCR Kit (TaKaRa Bio) was used for the quantitative RT-PCR, in accordance with the attached manual. […] The quantitative RT-PCR reaction consisted of 5 minutes of incubation at 42° C. to perform reverse transcription, followed by 10 seconds of incubation at 95° C., and 40 cycles consisting of 5 seconds at 95° and 31 seconds at 63° C.
The quantitative results for expression of a stem cell marker gene and differentiation marker genes for the three kinds of germ layer cells are shown in FIG. 3. The expressed amounts of these genes were first corrected by the expressed amounts of the GAPDH gene in each test group, and the relative expressed amount of the gene in the Sample 1 group relative to the expressed amount of the gene in the peptide-free group was determined by the ΔΔCt method.

LLLLLLVGLTAPAGKKRTLRKNDRKKR-CONH2 (LLLLLLVGLTAPAGKKRTLRKNDRKKR-NH2) [Sample 1]
part of microscope field appearing white (occupied by colonies of differentiated iPS cells) [1]: ≥ 80%
increase in the relative expressed amount of the AFP gene ([2]; 20th day after initiation of culture): particularly dramatic
expression timing of endodermal cell marker genes SOX17, GATA4 and FOXA2 [2]: sooner than the AFP gene
relative expressed amount of the AFP gene (endodermal marker gene) relative to peptide-free group (ΔΔCt, GAPDH corrected) ([2]; beginning 13 days after initiation of culture): increased much more than the relative expressed amounts of the other genes
